The source made the active and inactive calls.
Columns and labels:
Cytochrome P450 2C19 = Cytochrome P450 2C19 (Homo sapiens, UniProt P33261); assay: Cytochrome panel assay with activity outcomes. Panel member name: p450-cyp2c19 Compounds with AC50 equal or less than 10 uM are considered active; assay type: functional
Cytochrome P450 2D6 = Cytochrome P450 2D6 (Homo sapiens, UniProt P10635);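 also: CYP2D6 member of a cytochrome P450 panel assay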
Cytochrome P450 2C9 = Cytochrome P450 2C9 (Homo sapiens, UniProt P11712)
Cytochrome P450 3A4 = Cytochrome P450 3A4 (Homo sapiens, UniProt P08684);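 also: CYP3A4 tested as one member of a cytochrome P450 panel screen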
[1] = tested on: Streptococcus sp. 'group A'; assay: growth inhibition of control SK(-) GAS strain, dose response, counter-screen for streptokinase expression inhibitor project, luminescence, kanamycin, BacTiterGlo, confirmation (AID 1900); assay type: functional, organism-based
Streptococcus = assay: Group A Streptococcus viability loss, dose response, counter-screen for streptokinase expression inhibitor project, luminescence, BacTiterGlo (AID 1915); assay type: functional, organism-based;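 also: potency for reduction of bacterial viability or growth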
H4 = assay: Luminescence Cell-Based Dose Response HTS to Identify Activators of 5'UTR Stem-Loop Driven Prion Protein mRNA Translation in H4 Neuroglioblastoma Cells. [Related pubchem assays: 1829 (Project Summary), 1814 (Primary HTS)]; assay type: functional; conditions: Homo sapiens
[2] = inhibitors of intracellular T. cruzi replication, confirmation, NIH3T3 host cells, beta-gal luminescence (AID 2044); assay type: functional, cell-based;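 also: intracellular parasites grown in NIH/3T3 mouse fibroblasts as host cells; luminescent beta-galactosidase reporter signal from transgenic T. cruzi replicating inside host cells; inhibitors lower the luminescence signal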
[3] = cytotoxicity toward NIH3T3 fibroblasts, dose response, counter-screen, cell-based, ATP luminescence, mouse fibroblasts (AID 2010); assay type: functional;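 also: cells exposed to compound for about 90 hours before reading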

Cytochrome P450 2C9, sequence (P11712 whole entry): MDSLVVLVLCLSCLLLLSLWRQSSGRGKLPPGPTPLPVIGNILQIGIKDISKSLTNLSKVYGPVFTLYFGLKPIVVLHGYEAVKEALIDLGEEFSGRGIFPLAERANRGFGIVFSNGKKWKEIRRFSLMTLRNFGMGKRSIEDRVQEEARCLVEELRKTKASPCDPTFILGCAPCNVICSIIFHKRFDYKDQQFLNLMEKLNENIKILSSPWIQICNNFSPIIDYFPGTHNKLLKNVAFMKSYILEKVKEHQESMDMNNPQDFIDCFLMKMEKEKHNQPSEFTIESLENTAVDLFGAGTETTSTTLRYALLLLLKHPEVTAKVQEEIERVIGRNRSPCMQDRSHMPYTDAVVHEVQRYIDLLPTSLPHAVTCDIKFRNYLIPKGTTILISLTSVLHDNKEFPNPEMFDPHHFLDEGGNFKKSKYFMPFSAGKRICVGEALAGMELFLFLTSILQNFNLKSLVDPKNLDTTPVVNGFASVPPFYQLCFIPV
Cytochrome P450 2C19, sequence (P33261 whole entry): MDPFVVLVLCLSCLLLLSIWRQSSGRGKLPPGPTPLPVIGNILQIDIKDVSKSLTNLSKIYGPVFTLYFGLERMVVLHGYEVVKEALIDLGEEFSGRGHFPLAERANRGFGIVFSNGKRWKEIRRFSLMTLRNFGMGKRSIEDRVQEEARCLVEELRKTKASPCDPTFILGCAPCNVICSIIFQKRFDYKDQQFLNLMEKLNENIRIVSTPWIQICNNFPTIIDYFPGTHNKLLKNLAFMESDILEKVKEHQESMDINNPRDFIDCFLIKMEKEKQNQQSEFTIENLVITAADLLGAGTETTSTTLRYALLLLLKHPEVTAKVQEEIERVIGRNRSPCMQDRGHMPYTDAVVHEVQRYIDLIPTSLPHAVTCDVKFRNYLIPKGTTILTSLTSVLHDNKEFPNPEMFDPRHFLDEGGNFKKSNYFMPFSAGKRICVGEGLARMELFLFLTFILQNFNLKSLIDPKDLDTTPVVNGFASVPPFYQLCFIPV
Cytochrome P450 3A4, sequence (P08684 whole entry): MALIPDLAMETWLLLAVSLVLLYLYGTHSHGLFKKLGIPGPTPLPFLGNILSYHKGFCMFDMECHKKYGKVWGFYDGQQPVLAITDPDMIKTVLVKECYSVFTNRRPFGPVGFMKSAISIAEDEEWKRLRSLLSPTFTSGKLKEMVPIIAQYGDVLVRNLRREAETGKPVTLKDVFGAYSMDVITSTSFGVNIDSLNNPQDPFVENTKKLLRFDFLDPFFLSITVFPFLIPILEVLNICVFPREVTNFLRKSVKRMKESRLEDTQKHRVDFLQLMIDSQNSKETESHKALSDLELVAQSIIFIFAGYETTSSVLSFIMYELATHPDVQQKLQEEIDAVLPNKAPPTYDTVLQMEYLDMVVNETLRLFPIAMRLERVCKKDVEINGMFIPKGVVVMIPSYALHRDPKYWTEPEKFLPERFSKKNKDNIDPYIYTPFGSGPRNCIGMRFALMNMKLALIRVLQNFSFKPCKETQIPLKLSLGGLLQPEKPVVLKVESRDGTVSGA
Cytochrome P450 2D6, sequence (P10635 whole entry): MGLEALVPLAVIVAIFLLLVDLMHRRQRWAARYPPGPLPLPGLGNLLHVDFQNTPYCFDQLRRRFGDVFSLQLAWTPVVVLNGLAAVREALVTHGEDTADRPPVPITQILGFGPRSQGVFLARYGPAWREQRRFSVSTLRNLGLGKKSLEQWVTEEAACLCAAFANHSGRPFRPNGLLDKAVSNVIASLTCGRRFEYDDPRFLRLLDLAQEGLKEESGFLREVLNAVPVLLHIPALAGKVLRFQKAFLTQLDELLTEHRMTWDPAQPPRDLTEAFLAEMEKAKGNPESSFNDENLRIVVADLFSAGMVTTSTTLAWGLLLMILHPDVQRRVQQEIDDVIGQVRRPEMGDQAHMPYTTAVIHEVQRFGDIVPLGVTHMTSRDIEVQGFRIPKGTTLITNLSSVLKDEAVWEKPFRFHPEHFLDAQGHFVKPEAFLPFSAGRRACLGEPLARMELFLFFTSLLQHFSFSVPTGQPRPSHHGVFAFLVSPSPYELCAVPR

Row | SMILES | AC50 (Cytochrome P450 2D6) | AC50 (Cytochrome P450 2C9) | AC50 (Cytochrome P450 3A4) | other results
1 | O=c1c(-c2ccc(F)cc2)nc2cnc(N3CCNCC3)nc2n1Cc1ccc(F)cc1 | 20 µM (inconclusive) | 31.6 µM (inconclusive) | – | AC50 (Cytochrome P450 2C19; read-out: AC50): 39.8 µM (inconclusive)
2 | CCN(CC)CCNC(=O)Cn1nc(-c2ccc(C)cc2)ccc1=O | 22.4 µM (inconclusive) | – | – | AC50 (Cytochrome P450 2C19): inconclusive
3 | COc1ccc(NC(=O)COC(=O)c2c3c(nc4ccccc24)CCCC3)cc1 | – | – | 0.891 µM (inconclusive) | –
4 | CO[C@H]1C=CO[C@@]2(C)Oc3c(C)c(O)c4c(O)c(c5c(c4c3C2=O)=NC2(CCN(CC(C)C)CC2)N=5)NC(=O)C(C)=CC=C[C@H](C)[C@H](O)[C@@H](C)[C@@H](O)[C@@H](C)[C@H](OC(C)=O)[C@@H]1C | – | – | – | EC50 [1]: < 0.06 µM (active); EC50 (Streptococcus): < 0.06 µM (active)
5 | COc1ccc(C=O)cc1COc1ccc(C)cc1[N+](=O)[O-] | 14.1 µM (inconclusive) | 4.47 µM (inconclusive) | – | –
6 | Cc1ccc(S(=O)(=O)N(C)CC(=O)ONC(=N)c2ccccn2)cc1 | – | – | 22.4 µM (inconclusive) | AC50 (Cytochrome P450 2C19): inconclusive
7 | N#CCCn1c(=O)c(-c2ccccc2)nc2cnc(OCc3ccccc3)nc21 | – | – | 7.94 µM (inconclusive) | AC50 (Cytochrome P450 2C19; read-out: AC50): 39.8 µM (inconclusive)
8 | COc1ccc(C(=O)c2c[nH]c(C(=O)NCc3cccs3)c2)cc1 | – | 0.251 µM (inconclusive) | – | –
9 | Cc1cc(Nc2ccc(Cl)cc2)nc(N)n1 | – | – | 5.62 µM (inconclusive) | AC50 (Cytochrome P450 2C19; read-out: AC50): 8.91 µM (inconclusive)
10 | CCCc1nn2c(O)c(C(c3ccc(C)cc3)c3c(O)n4nc(CCC)sc4nc3=O)c(=O)nc2s1 | – | 12.6 µM (inconclusive) | – | –
11 | CC(C)(C)c1csc(NC2=NS(=O)(=O)c3ccccc32)n1 | – | – | – | EC50 (H4): > 120 µM (not active)
12 | COc1cc(/C=N/NC(=O)c2nc3ccccn3c2C)cc(OC)c1O | – | – | – | EC50 [2]: > 60 µM (not active); EC50 [3]: > 60 µM (not active)
13 | CC(=O)N(NC(=O)c1ccccc1Cl)C1CC(=O)N(c2ccc(C)cc2)C1=O (configuration not stated) | – | 14.1 µM (inconclusive) | 20 µM (inconclusive) | AC50 (Cytochrome P450 2C19; read-out: AC50): 1 µM (inconclusive)
14 | CCCc1ccc(Oc2cc(C)nc(N3CCOCC3)n2)cc1 | 14.1 µM (inconclusive) | – | – | –
15 | CCNc1ncc2nc(-c3ccc(Cl)cc3)c(=O)n(Cc3cccs3)c2n1 | 25.1 µM (inconclusive) | 31.6 µM (inconclusive) | – | –
16 | Cc1ccc(C)c(N2CCN(C(=O)c3ccc(Cn4c(=O)[nH]c5ccccc5c4=O)cc3)CC2)c1 | – | – | – | EC50 [2]: 0.687 µM (active); EC50 [3]: > 60 µM (not active)
17 | Cc1cc(-c2cccs2)nc(-n2cccc2)n1 | – | – | 31.6 µM (inconclusive) | AC50 (Cytochrome P450 2C19; read-out: AC50): 5.62 µM (inconclusive)
18 | O=C(Nc1ccccc1)N1CCCC2(CCN(C(=O)c3ccco3)CC2)C1 | – | 25.1 µM (inconclusive) | 15.8 µM (inconclusive) | –
19 | CCCCNC(=O)C1CC(=O)N(c2ccc(OC)cc2)C1c1ccc(OC)cc1 (configuration not stated) | 15.8 µM (inconclusive) | 25.1 µM (inconclusive) | – | AC50 (Cytochrome P450 2C19; read-out: AC50): 25.1 µM (inconclusive)
20 | O=S(=O)(N=C(Nc1ccccn1)c1ccccc1)c1ccc(Cl)cc1 | – | 11.2 µM (inconclusive) | 1.41 µM (inconclusive) | –
21 | CCN(CC)CCN(C(=O)C1=COCCO1)c1nc2ccc(C)cc2s1 | – | – | – | EC50 [2]: 0.384 µM (active); EC50 [3]: > 60 µM (not active)
22 | C/C(CCN1CCCCc2nc(C)c(C)cc21)=N\OC[C@@H](C)[C@H](OCc1ccccc1)C(C)C | – | – | 3.16 µM (inconclusive) | –
23 | O=C(NC1CCCCC1)C(=S)NC1CCCCC1 | – | – | – | EC50 (H4): 2.43 µM (active)
24 | Cc1cc(C(=O)CCl)c(C)n1Cc1ccco1 | – | – | – | EC50 [2]: 3.3 µM (active); EC50 [3]: 7.2 µM (active)
25 | Cc1ccccc1-c1cc(N(C)Cc2ccco2)ncn1 | 39.8 µM (inconclusive) | – | – | –
26 | COc1ccc(-c2nnn(CC(=O)NCCc3c[nH]c4ccccc34)n2)cc1OC | 0.0126 µM (inconclusive) | – | – | –
27 | Cc1nc(-c2ccccn2)nc(N(C)c2ccccc2)c1Cl | – | – | – | EC50 [2]: 3.26 µM (active); EC50 [3]: > 60 µM (not active)
28 | O=C1C=C(Nc2nc(C(=O)O)cc(=O)[nH]2)c2ccccc2C1=O | – | – | – | AC50 (Cytochrome P450 2C19; read-out: AC50): 3.16 µM (inconclusive)
29 | N=c1nc(N)nc(N)n1-c1ccc(S(N)(=O)=O)cc1 | 3.98 µM (inconclusive) | – | – | –
30 | CC(C(=O)NC1C(=O)N2C(C(=O)O)=C(CSc3nnnn3C)CSC12)n1cc(Br)cn1 (configuration not stated) | – | – | – | EC50 [1]: 0.101 µM (active); EC50 (Streptococcus): 0.125 µM (active)
